We go through one compound from patent US12011431B2, “Pharmaceutical composition for preventing or treating sensorineural hearing loss, containing forskolin and retinoic acid as active ingredients” (AJOU UNIVERSITY INDUSTRY-ACADEMIC COOPERATION FOUNDATION, priority 2018, dated 2024).

Each structure is given as a SMILES string.

Experiment [1] relates to lung cancer cell line (A549) xenograft. Nature of the experiment: Cisplatin anticancer effect in tumor-induced animal model (tumor size). Format: in vivo, Balb/c/nu/nu mice. To be noted: intraperitoneal for 5 days, then reared for 7 days. On the procedure:
In order to exclude mice having congenitally abnormal hearing, a preliminary hearing test was performed on all mice before the experiment. An auditory brainstem response (ABR) test was conducted on the immunodeficient Balb/c/nu/nu mice and then a lung cancer cell line (A549) was xenografted subcutaneously into the mice to produce a tumor-induced animal model (FIG. 1). After tumor formation in the tumor-induced ototoxic hearing loss animal model of Example 1, mice were randomly classified, and then (1) physiological saline (vehicle), (2) forskolin, (3) cisplatin or (4) a combination of cisplatin and forskolin was administered intraperitoneally to the mice for 5 days, and then the mice were reared for 7 days. The average tumor volume and body weight of each group were measured every week (FIGS. 4A and 4B). In addition, the weight of each of the extracted tumor and kidney was also measured (FIG. 4E).

Another experiment deals with HEI-OCl cells. Nature of the experiment: Inhibition of cisplatin-induced apoptosis in auditory cell line (calcein AM, cleaved PARP and caspase 3). The class given is cell-based. The settings on record: cisplatin 25 μM. As to the method: An auditory cell line expressing auditory genes (HEI-OCl; House-Ear Institute-organ of Corti 1) was used, and the HEI-OCl cells were incubated in DMEM medium (Dulbecco's modified Eagle's Medium) containing a high concentration of glutamine, supplemented with 10% fetal bovine serum (FBS) and 25 U/ml of interferon gamma at 33° C. and 10% CO2. The cells were treated with cisplatin at a concentration of 25 μM, and the effects of forskolin and retinoic acid were analyzed under conditions in which about 40 to 50% of cells were killed by cisplatin ototoxicity. In order to analyze the effects of forskolin and retinoic acid on ototoxicity, experimental groups were classified into (1) normal, (2) forskolin, (3) retinoic acid, (4) cisplatin, (5) cisplatin+forskolin, (6) cisplatin+retinoic acid, (7) cisplatin+forskolin+retinoic acid. Cisplatin was administered in an amount of 25 μM, forskolin was administered in an amount of 20 μM, and retinoic acid was administered in an amount of 50 μM. Then, viable cells were observed using calcein AM, a fluorescent stain applicable to live cells, and cleaved PARP and caspase 3, as apoptosis markers, were identified at the protein level.

The subject of another experiment is auditory hair cells. Nature of the experiment: Histological examination of the cochlea in conventional ototoxic hearing loss animal model. The class given is in vivo, SD (Sprague-Dawley) rats. To be noted: basal and middle turns in the cochlea; cisplatin 16 mg/kg i.p.; forskolin intratympanic; after 5 days. As to the method:
In order to exclude mice having congenitally abnormal hearing, a preliminary hearing test was performed on all mice before the experiment. An auditory brainstem response (ABR) test was conducted on 7-week-old SD (Sprague-Dawley) rats and then 16 mg/kg/7 ml of a cisplatin anticancer drug was administered intraperitoneally once to induce ototoxic hearing loss (FIG. 2). Before and after cisplatin administration, forskolin was intratympanically injected (IT) into one ear once in an amount of 25 μM in 20 μL a total of two times, and physiological saline containing DMSO as a control group was injected into the other ear. After 5 days, an auditory brainstem response (ABR) test and a histological examination were performed to evaluate the effect of preventing induction of forskolin-cAMP activity against ototoxic hearing loss.

Experiment [2] has as its system tumor-induced ototoxic hearing loss animal model. Nature of the experiment: Auditory brainstem response (ABR) test in tumor-induced ototoxic hearing loss animal model. The class given is in vivo, Balb/c/nu/nu mice. To be noted: 1 week after 2 weeks of administration, cisplatin 12 mg/kg 5 times a week, forskolin 2.5 mg/kg 6 times a week. As to the method: In order to exclude mice having congenitally abnormal hearing, a preliminary hearing test was performed on all mice before the experiment. An auditory brainstem response (ABR) test was conducted on the immunodeficient Balb/c/nu/nu mice and then a lung cancer cell line (A549) was xenografted subcutaneously into the mice to produce a tumor-induced animal model (FIG. 1).
(§1) The produced tumor-induced animal model was classified into (1) a physiological saline group (Vehicle), (2) a forskolin administration group (forskolin), (3) a cisplatin administration group (cisplatin), and (4) a cisplatin+forskolin combination administration group (cisplatin+forskolin), and each drug was administered to each group. Cisplatin was administered at 12 mg/kg 5 times a week, forskolin was administered at 2.5 mg/kg 6 times a week for a total of 2 weeks, the auditory brainstem response test was performed again 1 week after all administration was completed, and hematoxylin-eosin staining was performed for histological analysis. The auditory brainstem response (ABR) test is a method that determines the minimum stimulus level (dB) as a hearing threshold when applying tone burst sounds at 16 kHz and 32 kHz using a TDT ABR device.

Experiment [3] has as its system auditory hair cells, supporting cells and spiral ganglion cells in the organ of Corti. Nature of the experiment: Hematoxylin-eosin staining of the cochlea in tumor-induced ototoxic hearing loss animal model. Format: in vivo, Balb/c/nu/nu mice. The settings on record: basal and middle turns of the cochlea; forskolin given with cisplatin. On the procedure: as §1, with “device. In addition, loss and damage of the auditory hair cells, supporting cells and spiral ganglion cells in the organ of Corti during the basal and middle turns of the cochlea were evaluated using hematoxylin-eosin staining.” for “device.”

For `N.N.[Cl][Pt][Cl]` [cisplatin, cis-diaminedichloroplatinum (II)], in experiment [1], the “effect of reducing a tumor size compared to the control group” value was “about 50%”. Besides, the “cells killed by cisplatin ototoxicity” value in the experiment on HEI-OCl cells is 40 to 50%. For the same compound, the “cell viability / apoptosis (calcein staining, cleaved PARP and caspase 3)” value in the experiment on HEI-OCl cells (forskolin 20 μM, retinoic acid 50 μM) is recorded as “apoptosis of cisplatin-induced auditory cell lines was observed”. Further, the “loss of auditory hair cells (histological examination)” value with auditory hair cells is listed as “loss of a number of auditory hair cells”. Besides, the “hearing threshold (ABR)” value is given as 29 dB in experiment [2] (16 kHz) and 31 dB in experiment [2] (32 kHz). For the same compound, in experiment [3], the “loss and damage of auditory outer hair cells (hematoxylin-eosin staining)” value was “a number of the auditory outer hair cells during the basal and middle turns were found to be lost”.
